Laboratory results published in patent US20260055117A1, “SUBSTITUTED PYRIDONE GPR84 ANTAGONISTS AND USES THEREOF” (Liminal BioSciences Limited, priority 2022, published 2026).

Molecular target: T1, human GPR84 receptor (Homo sapiens, UniProt Q9NQS5)
T1 construct: host or cells: HEK293, transiently transfected
Test: Gαi biosensor BRET assay (GPR84 antagonism vs agonist ZQ-16)
Type: cell-based
Settings: HEK293 cells, 200 nmol/L agonist ZQ-16; for IC50: Gαi biosensor BRET assay; for inhibition at 2 µM: tested at 2 μM (concentration code A); for inhibition at 10 µM: tested at 10 μM (concentration code D)
From the text: Background—The following assays can be used for determination of GPR84 activation in living HEK293 cells. The Gai BRET biosensor (Gagnon et al., 2018; Gales et al., 2006. Nat Struct Mol Biol. 13, 778-86; Saulieres et al., 2012. Nat Chem Biol. 8, 622-30) allows to directly monitor GPR84-mediated activation of Gai. The Gai biosensor consists of a Rluc8-tagged Gai2 subunit, a GFP10-tagged Gy2 subunit, and an untagged GB1. Agonist stimulation and GPR84 activation triggers a physical separation between the RLuc8-Gai donor and the GFP10-Gy2 acceptor, resulting in a decrease in BRET signal whose amplitude is correlated to ligand efficacy (Gales et al., 2006). Moreover, signaling functions of GPCRs are tightly regulated by endocytosis, the targeting of receptors to endosomes and their sorting to lysosomes or recycling to the plasma membrane. The early endosomes (EEs) trafficking assay (Namkung et al., 2016. Nat Commun. 7, 12178) uses Rluc8-tagged GPR84 and Renilla GFP (rGFP) attached to the FYVE domain from human endofin/zinc finger FYVE domain-containing protein 16, which binds phosphatidylinositol 3-phosphate in EEs. Agonist stimulation of GPR84-Rluc8 leads to trafficking of the receptor to EEs, and ensuing increase of the donor concentration relative to the rGFP-FYVE acceptor anchored in the same cellular compartment, and thus results in an increase in BRET signal.
Plasmids—The cDNA clones for human GPR84 receptor, human Gai2, GB1, and Gy2 were obtained from the cDNA Resource Center (www.cdna.org). GFP10 (F64L, S147P, S202F and H231L variant of Aequorea victoria Green Fluorescent Protein) gBlocks gene fragments (Integrated DNA Technologies, IA) and linker were inserted in frame at the N-terminus of human Gy2. Rluc8 (A55T, C124A, S130A, K136R, A143M, M185V, M253L, and S287L variant of the Renilla reniformis luciferase) gBlocks gene fragment was inserted with linkers in frame in between residues 91 and 92 of Gai2 or at the C-terminus of GPR84. The FYVE domain from human endofin (residues Q739 to K806) attached in frame at the C terminus of a humanized Renilla GFP (rGFP), were synthesized as gBlocks gene fragments.
Bioluminescence Resonance Energy Transfer (BRET) Measurement-HEK293 cells were transfected with GPR84-Rluc8 and rGFP-FYVE for the EEs trafficking biosensor or with GPR84, Gai2-Rluc8, GFP10-Gy2, and GB1 for the Ga; biosensor. The following day, transiently transfected cells were seeded in 96-well white clear bottom microplates coated with poly-D-lysine and left in culture for 24 hours. Cells were washed once with Tyrode's buffer (140 mmol/L NaCl, 1 mmol/L CaCl2), 2.7 mmol/L KCl, 0.49 mmol/L MgCl2, 0.37 mmol/L NaH2PO4, 5.6 mmol/L glucose, 12 mmol/L NaHCO3, and 25 mmol/L HEPES, pH 7.5) before performing assays in Tyrode's buffer. Test compounds were incubated with cells for 5 (Gai) or 15 (EEs) minutes at 37° C. before addition of 200 nmol/L of the GPR84 agonist ZQ-16 (2-(Hexylthio)-6-hydroxy-4 (3H)-pyrimidinone) for 5 minutes at room temperature (Gai) or 30 minutes at 37° C. (EEs). The Rluc8 substrate coelenterazine 400A (Prolume, Lakeside, A Z) was added at a final concentration of 5 μmol/L and BRET readings were collected using an Infinite M1000 microplate reader (Tecan, Morrisville, N C). BRET2 readings between Rluc8 and GFP10 or rGFP were collected by sequential integration of the signals detected in the 370 to 450 nm (Rluc8) and 510 to 540 nm (GFP10, rGFP) windows. The BRET signal was calculated as the ratio of light emitted by acceptor (GFP10, rGFP) over the light emitted by donor (Rluc8). The values were corrected to net BRET by subtracting the background BRET signal obtained in cells transfected with Rluc8 constructs alone. Ligand-promoted net BRET values were calculated by subtracting vehicle-induced net BRET from ligand-induced net BRET.

T1 sequence (Q9NQS5 whole entry): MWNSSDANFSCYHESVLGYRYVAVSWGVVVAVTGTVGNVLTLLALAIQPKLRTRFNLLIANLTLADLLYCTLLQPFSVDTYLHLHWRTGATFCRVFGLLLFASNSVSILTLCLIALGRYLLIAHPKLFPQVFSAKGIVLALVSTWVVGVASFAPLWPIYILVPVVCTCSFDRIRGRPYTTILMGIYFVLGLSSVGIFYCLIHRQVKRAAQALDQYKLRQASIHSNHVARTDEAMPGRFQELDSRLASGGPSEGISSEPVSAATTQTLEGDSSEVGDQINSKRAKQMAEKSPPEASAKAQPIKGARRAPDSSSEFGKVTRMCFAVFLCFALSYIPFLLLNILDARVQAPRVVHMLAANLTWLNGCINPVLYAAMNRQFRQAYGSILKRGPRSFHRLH

SMILES	IC50	inhibition at 2 µM	inhibition at 10 µM
Cc1cc(OCC(=O)N(C)C)cc(=O)n1[C@H](C)c1ccc(C#CC2CC2(F)F)c(F)c1 (single isomer, unassigned) [Compound I-83]	≤ 300 nM	> 75%	
Cc1cc(OCC(=O)N(C)C)cc(=O)n1[C@H](C)c1ccc(C#CC2CC2(F)F)c(F)c1 (single isomer, unassigned) [Compound I-84]	≤ 300 nM		
Cc1cc(OCC(=O)N2CCC2)cc(=O)n1[C@H](C)c1ccc(C#CC2CC2)cc1 [Compound I-1, (R)-4-(2-(azetidin-1-yl)-2-oxoethoxy)-1-(1-(4-(cyclopropylethynyl)phenyl)ethyl)-6-methylpyridin-2 (1H)-one]	≤ 300 nM	> 75%	
Cc1cc(OCC(=O)N2CCCC2)cc(=O)n1[C@H](C)c1ccc(C#CC2CC2)cc1 [Compound I-2]	≤ 300 nM	> 75%	
Cc1cc(OCC(=O)N2CCOCC2)cc(=O)n1[C@H](C)c1ccc(C#CC2CC2)cc1 [Compound I-3]	≤ 300 nM	> 75%	
COc1cncnc1COc1cc(C)n([C@H](C)c2ccc(C#CC3CC3)cc2)c(=O)c1 [Compound I-4]			> 75%
CCCCc1ccc(C(C)n2c(C)cc(OCc3ncccn3)cc2=O)cc1 (centres unmarked) [Compound I-5, 1-(1-(4-butylphenyl)ethyl)-6-methyl-4-(pyrimidin-2-ylmethoxy)pyridin-2 (1H)-one]			< 25%
[2H]C([2H])([2H])N(C(=O)COc1cc(C)n([C@H](C)c2ccc(C#CC3CC3)cc2)c(=O)c1)C([2H])([2H])[2H] [Compound I-6]	≤ 300 nM	> 75%	
Cc1cc(OCC(=O)N2CC(F)(F)C2)cc(=O)n1[C@H](C)c1ccc(C#CC2CC2)cc1 [Compound I-7]	300 to 1000 nM		> 75%
Cc1cc(OCC(=O)N2CCC(F)(F)CC2)cc(=O)n1[C@H](C)c1ccc(C#CC2CC2)cc1 [Compound I-8]			> 75%
Cc1cc(OCC2COCCO2)cc(=O)n1[C@H](C)c1ccc(NC(=O)c2cnccn2)c(F)c1 (stereo partly drawn) [Compound I-9, N-(4-((1R)-1-(4-((1,4-dioxan-2-yl)methoxy)-6-methyl-2-oxopyridin-1 (2H)-yl)ethyl)-2-fluorophenyl) pyrazine-2-carboxamide]			< 25%
Cc1cc(OCc2ncccn2)cc(=O)n1[C@H](C)c1ccc(-c2cnc(C3CC3)cn2)c(F)c1 [Compound I-10]			< 25%
Cc1cc(OCc2ncc(NS(C)(=O)=O)cn2)cc(=O)n1[C@H](C)c1ccc(C#CC2CC2)cc1 [Compound I-11]	≤ 300 nM	> 75%	
Cc1noc(COc2cc(C)n([C@H](C)c3ccc(C#CC4CC4)cc3)c(=O)c2)n1 [Compound I-12]			> 75%
Cc1cc(OCc2cnc(C3CC3)cn2)cc(=O)n1C(C)c1ccc(OCC2CCCCO2)c(F)c1 (centres unmarked) [Compound I-13]			< 25%
Cc1cc(OCC(=O)N(C)C)cc(=O)n1[C@H](C)c1ccc(C#CC2CC2)c(F)c1 [Compound I-14]	≤ 300 nM	> 75%	
Cc1cc(OCc2ncncc2Cl)cc(=O)n1[C@H](C)c1ccc(C#CC2CC2)cc1 [Compound I-15]	≤ 300 nM		> 75%
Cc1cc(OCC2COCCO2)cc(=O)n1C(C)c1ccc(OCC2CCN(C(=O)C3CC3)CC2)c(F)c1 (centres unmarked) [Compound I-16]			< 25%
Cc1nnc(COc2cc(C)n([C@H](C)c3ccc(C#CC4CC4)c(F)c3)c(=O)c2)o1 [Compound I-17]	≤ 300 nM	> 75%	
Cc1noc(COc2cc(C)n([C@H](C)c3ccc(C#CC4CC4)c(F)c3)c(=O)c2)n1 [Compound I-18]			> 75%
Cc1cc(OCC2(N(C)C)COC2)cc(=O)n1[C@H](C)c1ccc(C#CC2CC2)c(F)c1 [Compound I-19]			50 to 75%

SMILES	IC50	inhibition at 2 µM	inhibition at 10 µM
CCCC#Cc1ccc([C@@H](C)n2c(C)cc(OCC(=O)N(C)C)cc2=O)cc1 [Compound I-20]	≤ 300 nM		> 75%
Cc1cc(OCC(=O)O)cc(=O)n1[C@H](C)c1ccc(C#CC2CC2)cc1 [Compound I-21]			50 to 75%
COC(=O)COc1cc(C)n([C@H](C)c2ccc(C#CC3CC3)cc2)c(=O)c1 [Compound I-22]			> 75%
Cc1cc(OCC(=O)N2CCC2)cc(=O)n1[C@H](C)c1ccc(C#CC2CC2)c(F)c1 [Compound I-23]	≤ 300 nM	> 75%	
Cc1cc(OCC(=O)N2CC(F)(F)C2)cc(=O)n1[C@H](C)c1ccc(C#CC2CC2)c(F)c1 [Compound I-24]	300 to 1000 nM		> 75%
Cc1cc(OCC(=O)N2CCCC2)cc(=O)n1[C@H](C)c1ccc(C#CC2CC2)c(F)c1 [Compound I-25]	≤ 300 nM	> 75%	
Cc1cc(OCC(=O)N2CCC(F)(F)CC2)cc(=O)n1[C@H](C)c1ccc(C#CC2CC2)c(F)c1 [Compound I-26]			> 75%
Cc1cc(OCC(=O)N2CCOCC2)cc(=O)n1[C@H](C)c1ccc(C#CC2CC2)c(F)c1 [Compound I-27]			> 75%
CCC#Cc1ccc([C@@H](C)n2c(C)cc(OCC(=O)N(C)C)cc2=O)cc1 [Compound I-28]	≤ 300 nM		> 75%
Cc1cc(OCC(=O)N(C)C)cc(=O)n1[C@H](C)c1ccc(C#CC2CC2)c(Cl)c1 [Compound I-29]	≤ 300 nM	> 75%	
Cc1cc(OCC2(N(C)C)CC2)cc(=O)n1[C@H](C)c1ccc(C#CC2CC2)cc1 [Compound I-30]			50 to 75%
Cc1cc(OCC2(N(C)C)CC2)cc(=O)n1[C@H](C)c1ccc(C#CC2CC2)c(F)c1 [Compound I-31]			25 to 50%
Cc1cc(OCC(=O)N(C)C)cc(=O)n1[C@H](C)c1ccc(C#CCC2CC2)cc1 [Compound I-32]	≤ 300 nM	> 75%	
Cc1cc(OCC(=O)N(C)C)cc(=O)n1[C@H](C)c1ccc(C#CC2CC2)c(C2CC2)c1 [Compound I-33]			> 75%
Cc1cc(OCC(=O)N(C)C)cc(=O)n1[C@H](C)c1ccc(C#CC2CC2)c(C#N)c1 [Compound I-34]	≤ 300 nM	> 75%	
Cc1cc(OCC(=O)N(C)C)cc(=O)n1[C@H](C)c1ccc(C#CC2CC2)c(Br)c1 [Compound I-35]	≤ 300 nM	> 75%	
Cc1cc(OCC2(N(C)C)COC2)cc(=O)n1[C@H](C)c1ccc(C#CC2CC2)cc1 [Compound I-36]			> 75%
Cc1cc(OCS(=O)(=O)N(C)C)cc(=O)n1[C@H](C)c1ccc(C#CC2CC2)c(F)c1 [Compound I-37, (R)-1-(1-(1-(4-(cyclopropylethynyl)-3-fluorophenyl)ethyl)-6-methyl-2-oxo-1,2-dihydropyridin-4-yloxy)-N,N-dimethylmethanesulfonamide]			50 to 75%
Cc1cc(OCC(=O)N(C)C)cc(=O)n1[C@H](C)c1ccc(C#CC2CC2)c(N(C)C)c1 [Compound I-38]			> 75%
CCc1cc([C@@H](C)n2c(C)cc(OCC(=O)N(C)C)cc2=O)ccc1C#CC1CC1 [Compound I-39]	≤ 300 nM	> 75%	
Cc1cc(OCC2OCCC(C)(C)O2)cc(=O)n1[C@H](C)c1ccc(C#CC2CC2)cc1 (some centres unmarked) [Compound I-40]			25 to 50%
